30 molecules from ChEMBL document CHEMBL3627691, “Structure activity relationships of benzyl C-region analogs of 2-(3-fluoro-4-methylsulfonamidophenyl)propanamides as potent TRPV1 antagonists” (Bioorg Med Chem, 2015) can be followed below.

In general, Ki refers to a dissociation constant, usually derived from enzyme kinetics or from competition with a known ligand. Broadly, the IC50 is the concentration needed to halve the response being measured. The term inhibition in vivo denotes the drop in the measured response relative to a control, in per cent.

The target in data set [1] is T1, Transient receptor potential cation channel subfamily V member 1 (Homo sapiens, UniProt Q8NER1). Kind of data set: Antagonist activity at human TRPV1 heterologously expressed in CHO cells assessed as inhibition of capsaicin-induced activation by FLIPR assay. In kind it is cell-based.
Data set [2] deals with T1, Transient receptor potential cation channel subfamily V member 1. Briefly: Antagonist activity at human TRPV1 heterologously expressed in CHO cells assessed as inhibition of NADA-induced activation by FLIPR assay. The format is cell-based.
Data set [3] shares this target. Kind of data set: Antagonist activity at human TRPV1 heterologously expressed in CHO cells assessed as inhibition of low pH-induced activation. In kind it is cell-based.
Data set [4] shares this target. Briefly: Antagonist activity at human TRPV1 heterologously expressed in CHO cells assessed as inhibition of low 45 degC heat -induced activation. The format is cell-based.
Data set [5] has as its system Mus musculus. Kind of data set: Inhibition of capsaicin-induced hypothermia in mouse at 3 mg/kg, po administered 15 mins prior to capsaicin challenge measured 30 mins post capsaicin challenge. The format is functional.
Data set [6] has as its system Mus musculus. Briefly: Analgesic activity in Bennett mouse model of neuropathic pain assessed as reduction of CCI-induced cold allodynia at 0.0001 to 100 mg/kg, po. The format is functional, organism-based.
Data set [7] deals with Mus musculus. Briefly: Induction of hyperthermia in mouse at 0.3 and 3 mg/kg, po. The settings on record: in vivo.
In data set [8] the test system is Mus musculus. Briefly: Inhibition of capsaicin-induced hypothermia in mouse at 0.3 mg/kg, po administered 15 mins prior to capsaicin challenge measured 30 mins post capsaicin challenge. The format is functional.
The test system of data set [9] is Mus musculus. Briefly: Analgesic activity in Bennett mouse model of neuropathic pain assessed as reduction of CCI-induced cold allodynia at 10 mg/kg, po. The format is functional.
Data set [10] concerns Mus musculus. Briefly: Inhibition of capsaicin-induced hypothermia in mouse at 0.3 and 3 mg/kg, po administered 15 mins prior to capsaicin challenge measured 30 mins post capsaicin challenge. In kind it is functional, organism-based.

T1 sequence (Q8NER1 whole entry): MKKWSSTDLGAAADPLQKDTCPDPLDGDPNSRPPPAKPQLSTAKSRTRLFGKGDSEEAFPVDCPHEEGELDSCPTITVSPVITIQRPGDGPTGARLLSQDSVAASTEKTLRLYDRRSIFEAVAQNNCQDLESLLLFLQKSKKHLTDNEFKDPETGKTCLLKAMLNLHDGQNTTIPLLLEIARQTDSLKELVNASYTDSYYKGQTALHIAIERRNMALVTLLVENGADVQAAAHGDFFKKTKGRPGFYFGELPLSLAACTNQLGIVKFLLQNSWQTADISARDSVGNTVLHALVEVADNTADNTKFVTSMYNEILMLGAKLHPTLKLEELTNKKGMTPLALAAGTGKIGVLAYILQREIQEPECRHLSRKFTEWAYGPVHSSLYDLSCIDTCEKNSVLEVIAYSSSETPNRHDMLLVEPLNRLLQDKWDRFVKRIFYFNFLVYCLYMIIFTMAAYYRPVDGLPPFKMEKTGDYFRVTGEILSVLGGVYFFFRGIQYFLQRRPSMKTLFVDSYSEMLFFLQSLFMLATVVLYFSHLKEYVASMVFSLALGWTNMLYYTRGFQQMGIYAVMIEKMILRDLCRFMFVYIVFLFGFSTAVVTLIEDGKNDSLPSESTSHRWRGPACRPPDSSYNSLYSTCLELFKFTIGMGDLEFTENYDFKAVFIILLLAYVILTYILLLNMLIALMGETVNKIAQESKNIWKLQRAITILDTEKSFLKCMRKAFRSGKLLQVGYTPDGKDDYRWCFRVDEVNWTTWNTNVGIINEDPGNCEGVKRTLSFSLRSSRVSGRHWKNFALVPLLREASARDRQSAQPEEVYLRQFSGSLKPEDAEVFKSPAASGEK

`CC1CCN(c2cc(C(F)(F)F)ccc2CNC(=O)C(C)c2ccc(NS(C)(=O)=O)c(F)c2)CC1` (stereo not given): the Ki in data set [1] (read-out: Ki) stood at 0.9 nM.

For `CC(C(=O)NCc1ccc(C(F)(F)F)cc1SCc1ccccc1Cl)c1ccc(NS(C)(=O)=O)c(F)c1` (stereo not given), the Ki in data set [1] (read-out: Ki) amounted to 0.9 nM.

Consider `CC(C)COc1cc(C(F)(F)F)ccc1CNC(=O)C(C)c1ccc(NS(C)(=O)=O)c(F)c1` (stereo not given), for which the Ki in [1] (read-out: Ki) was found to be 0.8 nM.

For the molecule `C[C@@H](C(=O)NCc1ccc(C(F)(F)F)cc1SC1CCCCC1)c1ccc(NS(C)(=O)=O)c(F)c1`, the Ki in [1] (read-out: Ki) came out at 13.9 nM.

For `C[C@H](C(=O)NCc1ccc(C(F)(F)F)cc1SC1CCCCC1)c1ccc(NS(C)(=O)=O)c(F)c1`, the Ki in [2] stood at 0.03 nM; in data set [1] (read-out: Ki) it was 0.3 nM. Further, the values for the IC50 in data set [3] and in data set [4] were 20.4 nM and 7.3 nM, respectively. In the data set on Mus musculus [5], this molecule returned an inhibition in vivo at 3 mg/kg of 57%. For the same molecule, the Activity result in the data set on Mus musculus [6] is “Dose-dependent effect”; in the data set on Mus musculus [7], “Non-toxic”.

In the case of `CC(C)CCOc1cc(C(F)(F)F)ccc1CNC(=O)C(C)c1ccc(NS(C)(=O)=O)c(F)c1` (stereo not given), in data set [1] (read-out: Ki), the Ki amounted to 0.5 nM.

Consider `CC(C(=O)NCc1ccc(C(F)(F)F)cc1OCc1ccc(F)cc1)c1ccc(NS(C)(=O)=O)c(F)c1` (stereo not given), for which the inhibition constant Ki in data set [1] (read-out: Ki) is 0.5 nM.

For `CCCCN(C)c1cc(C(F)(F)F)ccc1CNC(=O)C(C)c1ccc(NS(C)(=O)=O)c(F)c1` (stereo not given), in data set [1] (read-out: Ki), the Ki was found to be 1.2 nM.

In the case of `CC(C(=O)NCc1ccc(C(F)(F)F)cc1-c1cccc(Cl)c1)c1ccc(NS(C)(=O)=O)c(F)c1` (stereo not given), in data set [1] (read-out: Ki), the Ki came to 1 nM.

Regarding `CC(C(=O)NCc1ccc(C(F)(F)F)cc1C1CCCCC1)c1ccc(NS(C)(=O)=O)c(F)c1` (stereo not given), the Ki in data set [1] (read-out: Ki) is 0.6 nM.

`CC(C(=O)NCc1ccc(C(F)(F)F)cc1SCCCO)c1ccc(NS(C)(=O)=O)c(F)c1` (stereo not given): the Ki entry in data set [1] (cho) is on record as “Not Active”.

`CC(C(=O)NCc1ccc(C(F)(F)F)cc1-c1ccc(F)c(Cl)c1)c1ccc(NS(C)(=O)=O)c(F)c1` (stereo not given): the Ki in [1] (read-out: Ki) was 0.6 nM.

With `CC(C(=O)NCc1ccc(C(F)(F)F)cc1N1CCN(c2cccc(C(F)(F)F)c2)CC1)c1ccc(NS(C)(=O)=O)c(F)c1` (stereo not given), the Ki in [1] (read-out: Ki) was found to be 3.9 nM.

As to `CCCCCCSc1cc(C(F)(F)F)ccc1CNC(=O)C(C)c1ccc(NS(C)(=O)=O)c(F)c1` (stereo not given), the Ki in data set [1] (read-out: Ki) stood at 1.8 nM.

Consider `CCCCSc1cc(C(F)(F)F)ccc1CNC(=O)C(C)c1ccc(NS(C)(=O)=O)c(F)c1` (stereo not given), for which the Ki in data set [1] (read-out: Ki) worked out at 1.9 nM.

Turning to `CCCCCSc1cc(C(F)(F)F)ccc1CNC(=O)C(C)c1ccc(NS(C)(=O)=O)c(F)c1` (stereo not given), the Ki in data set [1] (read-out: Ki) was 2.3 nM.

For the molecule `CC(C(=O)NCc1ccc(C(F)(F)F)nc1N1CCC(C(F)(F)F)CC1)c1ccc(NS(C)(=O)=O)c(F)c1` (stereo not given), the inhibition constant Ki in data set [1] (read-out: Ki) worked out at 0.4 nM.

Turning to `CC(C(=O)NCc1ccc(C(F)(F)F)cc1[N+](=O)[O-])c1ccc(NS(C)(=O)=O)c(F)c1` (stereo not given), the Ki entry in data set [1] (cho) is listed as “Not Active”.

Turning to `CCCOc1cc(C(F)(F)F)ccc1CNC(=O)C(C)c1ccc(NS(C)(=O)=O)c(F)c1` (stereo not given), the Ki in data set [1] (read-out: Ki) is 2 nM.

Turning to `CC(C(=O)NCc1ccc(C(F)(F)F)cc1SCc1ccc(Cl)cc1)c1ccc(NS(C)(=O)=O)c(F)c1` (stereo not given), in data set [1] (read-out: Ki), the Ki is 1.1 nM.

In the case of `CC(C(=O)NCc1ccc(C(F)(F)F)cc1SC1CCCC1)c1ccc(NS(C)(=O)=O)c(F)c1` (stereo not given), the Ki was 0.03 nM in data set [2] and 0.3 nM in data set [1] (read-out: Ki). The values for the IC50 in data set [3] and in data set [4] were 32 nM and 37.2 nM, respectively. In addition, the inhibition in vivo at 0.3 mg/kg in the data set on Mus musculus [8] turned out to be 38%. Testing at 3 mg/kg in the data set on Mus musculus [5] gave an inhibition in vivo of 80%. In addition, the MPE in the data set on Mus musculus [9] came to 48%. Besides, the inhibition entry in the data set on Mus musculus [10] is “Dose-dependent effect”. The Activity entry in the data set on Mus musculus [6] is “Dose-dependent effect”; with Mus musculus [7], “Non-toxic”.

For `CC(C(=O)NCc1ccc(C(F)(F)F)cc1N1CCC(Cc2ccc(F)cc2)CC1)c1ccc(NS(C)(=O)=O)c(F)c1` (stereo not given), the Ki in data set [1] (read-out: Ki) turned out to be 0.4 nM.

For `COc1ccc(CSc2cc(C(F)(F)F)ccc2CNC(=O)C(C)c2ccc(NS(C)(=O)=O)c(F)c2)cc1` (stereo not given), the Ki in [1] (read-out: Ki) worked out at 2.3 nM.

With `CC(C(=O)NCc1ccc(C(F)(F)F)cc1N1CCC(Cc2cccc(F)c2)CC1)c1ccc(NS(C)(=O)=O)c(F)c1` (stereo not given), the Ki in data set [1] (read-out: Ki) turned out to be 0.4 nM.

On to `CC(C)CCSc1cc(C(F)(F)F)ccc1CNC(=O)C(C)c1ccc(NS(C)(=O)=O)c(F)c1` (stereo not given), for which the Ki in data set [1] (read-out: Ki) is 1.4 nM.

Turning to `CC(C(=O)NCc1ccc(C(F)(F)F)cc1SCc1ccco1)c1ccc(NS(C)(=O)=O)c(F)c1` (stereo not given), the Ki in [1] (read-out: Ki) is 3.2 nM.

As to `CC(C(=O)NCc1ccc(C(F)(F)F)nc1-c1ccc(F)c(Cl)c1)c1ccc(NS(C)(=O)=O)c(F)c1` (stereo not given), the Ki in [1] (read-out: Ki) turned out to be 0.6 nM.

Take `CCCCCCc1cc(C(F)(F)F)ccc1CNC(=O)C(C)c1ccc(NS(C)(=O)=O)c(F)c1` (stereo not given): the Ki in [1] (read-out: Ki) was 0.4 nM.

For the molecule `CC(C(=O)NCc1ccc(C(F)(F)F)cc1SCc1ccccc1)c1ccc(NS(C)(=O)=O)c(F)c1` (stereo not given), the Ki in [1] (read-out: Ki) amounted to 0.5 nM.

`CC(C(=O)NCc1ccc(C(F)(F)F)cc1SC1CCCCC1)c1ccc(NS(C)(=O)=O)c(F)c1` (stereo not given): the Ki in [1] (read-out: Ki) is 0.5 nM.
